Results taken from US8067424B2, “Selective inhibitors for cyclin-dependent kinases” (Emory University, priority 2007, dated 2011).
Like-named read-outs stand apart in the source and are kept apart here.

What was measured:
Type in all cases: biochemical
CAMKKβ = CAMKKβ (Homo sapiens, UniProt Q96RR4); test: Kinase screen: CAMKKb assay
Experimental: (§1) Generally, the same procedure was used for all assays. Since the total assay volume was 25.5 microliters, 0.5 microliters of inhibitors at 51× assay concentration were added to the plates before any other addition.
(§2) The basic procedure was to add 0.5 microliters inhibitor/control in DMSO to plate. Fifteen microliters of enzyme/substrate/buffer mix were added and incubated for 5 min. Ten microliters MgATP at the relevant concentration were added and incubated for 30 min. The assay was stopped by adding 5 microliters of 3% orthophosphoric acid. The assay was transferred to a p81 filter plate and read in a scintillation counter of 30 sec/well. Note that this assay procedure was not followed for MKK1, which instead involved a two-step assay, and PKC alpha, which required the addition of lipid vesicles.
(500-1000 cpm/pmole) and incubated for 30 mins at room temperature. […] Assays were harvested onto P81 Unifilter plates using a wash buffer of 50 mM orthophosphoric acid.

EFK2 = EFK2 (Homo sapiens, UniProt O00418); test: Kinase screen: EF2K assay
Experimental: as §1, §2
(§3) EF2K assay: EF2K (5-20 mU diluted in 50 mM Hepes pH 6.6, 0.1% b-mercaptoethanol, 1 mg/ml BSA) was assayed against a substrate peptide ([…]) (SEQ ID NO: 27) in a final volume of 25.5 μl containing 50 mM Hepes pH 6.6, 0.2 mM CaCl2, 0.3 μM Calmodulin, 0.05% b-mercaptoethanol, 300 μM substrate peptide, 10 mM magnesium acetate and 0.005 mM [33P-g-ATP] (50-1000 cpm/pmole) and incubated for 30 min at room temperature. Assays were stopped by addition of 5 μl of 0.5 M (3%) orthophosphoric acid and then harvested onto P81 Unifilter plates with a wash buffer of 50 mM orthophosphoric acid.

p38σ MAPK = target: T1, p38σ MAPK (Homo sapiens, UniProt O15264); test: Kinase screen: SAPK 4/p38d assay
T1 sequence (O15264 1-365): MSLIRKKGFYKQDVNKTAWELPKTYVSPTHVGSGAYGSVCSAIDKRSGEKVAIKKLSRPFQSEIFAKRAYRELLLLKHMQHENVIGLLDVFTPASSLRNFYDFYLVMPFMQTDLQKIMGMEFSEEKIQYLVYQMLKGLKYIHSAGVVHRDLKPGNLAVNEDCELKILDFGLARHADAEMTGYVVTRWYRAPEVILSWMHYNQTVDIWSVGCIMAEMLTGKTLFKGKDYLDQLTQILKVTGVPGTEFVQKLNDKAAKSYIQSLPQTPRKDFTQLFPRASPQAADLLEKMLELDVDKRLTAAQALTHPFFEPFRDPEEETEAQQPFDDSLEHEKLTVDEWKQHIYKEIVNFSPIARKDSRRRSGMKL
Experimental: as §1, §2
SAPK 4/p38d assay: SAPK 4/p38d (5-20 mU diluted in 50 mM Tris pH 7.5, 0.1 mM EGTA, 0.1 mM Na3VO4, 0.1% b-mercaptoethanol, 1 mg/ml BSA) was assayed against MBP in a final volume of 25.5 μl containing 25 mM Tris pH 7.5, 0.1 mM EGTA, 0.33 mg/ml MBP, 10 mM magnesium acetate and 0.005 mM [33P-g-ATP] (50-1000 cpm/pmole) and incubated for 30 min at room temperature. Assays were stopped by addition of 5 μl of 0.5 M (3%) orthophosphoric acid and then harvested onto P81 Unifilter plates with a wash buffer of 50 mM orthophosphoric acid.

CDK9/cyclin T complex = target: T2, CDK9/cyclin T complex (Homo sapiens, UniProt P50750); test: CDK9/cyclin T kinase assay (as for CDK7); settings: for remaining activity at 0.1 µM: 100 nM, mean of three (standard deviation), read-out: CDK9 % remaining kinase activity after incubation with 100 nM of compound; for IC50: Table 7, mean of three experiments, read-out: CDK9 kinase inhibition in vitro (IC50)
T2 construct: purchased Proqinase GmbH, Germany
How it was run: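 Run as the CDK7 protocol with 50 ng CDK2/cyclin A or 100 ng CDK9/cyclin T; compound 30 min at 30 °C, then 2 μM ATP final for 20 min at 30 °C. ATP depletion by luciferase luminescence (PKLight), triplicate, normalised to no-enzyme and enzyme controls.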

VEG-FR = test: Kinase screen: VEG-FR assay; settings: 10 micromolar compound
Experimental: as §1, §2
as §3, with “VEG-FR” for “EF2K”, “Tris” for “Hepes”, “7.5, 0.1 mM EGTA,” for “6.6, 0.1% b-mercaptoethanol,”, “35)” for “27)”, “7.5,” for “6.6, 0.2 mM CaCl2, 0.3 μM Calmodulin, 0.05% b-mercaptoethanol,”, “0.02” for “0.005”

[1] = 0.5 h, read-out: mean activity remaining (as a percentage of the original activity), CAMK Kb
[2] = 10 micromolar compound, read-out: mean activity remaining (as a percentage of the original activity), EFK2
[3] = 10 micromolar compound, read-out: mean activity remaining (as a percentage of the original activity), p38s MAPK

T2 sequence (P50750 whole entry): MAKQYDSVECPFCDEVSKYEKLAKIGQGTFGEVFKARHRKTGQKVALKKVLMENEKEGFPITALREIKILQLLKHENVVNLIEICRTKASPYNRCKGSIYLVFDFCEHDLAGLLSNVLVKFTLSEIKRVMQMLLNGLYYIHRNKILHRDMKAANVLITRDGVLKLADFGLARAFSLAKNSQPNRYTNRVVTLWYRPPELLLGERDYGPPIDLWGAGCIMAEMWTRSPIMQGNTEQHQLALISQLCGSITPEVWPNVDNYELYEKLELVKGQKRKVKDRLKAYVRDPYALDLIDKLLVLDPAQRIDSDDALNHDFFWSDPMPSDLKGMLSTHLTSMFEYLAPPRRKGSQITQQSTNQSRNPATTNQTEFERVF
T2 sequence (O60563 whole entry partner): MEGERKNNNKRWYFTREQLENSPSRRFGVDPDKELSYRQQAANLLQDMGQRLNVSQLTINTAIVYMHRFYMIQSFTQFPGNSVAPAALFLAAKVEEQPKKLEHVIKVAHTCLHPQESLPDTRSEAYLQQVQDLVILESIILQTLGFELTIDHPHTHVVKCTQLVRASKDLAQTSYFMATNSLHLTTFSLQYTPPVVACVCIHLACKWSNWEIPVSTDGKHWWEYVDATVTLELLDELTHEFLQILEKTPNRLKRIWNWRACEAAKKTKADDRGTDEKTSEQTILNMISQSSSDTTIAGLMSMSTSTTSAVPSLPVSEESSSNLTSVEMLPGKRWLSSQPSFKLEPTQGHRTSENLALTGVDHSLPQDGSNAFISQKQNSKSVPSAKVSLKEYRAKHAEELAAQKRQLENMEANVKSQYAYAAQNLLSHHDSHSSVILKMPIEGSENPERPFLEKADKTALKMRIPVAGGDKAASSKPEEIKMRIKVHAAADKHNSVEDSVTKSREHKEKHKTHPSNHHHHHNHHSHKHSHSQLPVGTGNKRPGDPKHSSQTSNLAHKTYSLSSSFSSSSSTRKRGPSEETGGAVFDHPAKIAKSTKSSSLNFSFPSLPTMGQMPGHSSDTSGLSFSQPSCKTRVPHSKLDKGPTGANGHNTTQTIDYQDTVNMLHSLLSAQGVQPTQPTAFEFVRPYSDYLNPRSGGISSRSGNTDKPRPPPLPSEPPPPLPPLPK

Work on `CC(C)c1cnn2c(NCc3ccccc3)cc(NCCCCCCCN)nc12` [BS-181] yielded a remaining activity at 10 µM (CAMKKβ; CAMKKβ, 10 μM, read-out: Mean Remaining Enzyme Activity (%)) of 67%, a remaining activity at 10 µM (EFK2; EFK2, 10 μM, read-out: Mean Remaining Enzyme Activity (%)) of 119% and a remaining activity at 10 µM (p38σ MAPK; p38σ MAPK, 10 μM, read-out: Mean Remaining Enzyme Activity (%)) of 96%.
`C=C[C@H](CO)Nc1cc(NCc2ccccc2)n2ncc(C(C)C)c2n1` [ICEC0065] was tested, and the remaining activity at 0.1 µM (CDK9/cyclin T complex) was 100%, the IC50 (CDK9/cyclin T complex) was over 1000 nM and the “mean activity remaining (as a percentage of the original activity), VEG-FR” value (VEG-FR) was 101%. For the same compound, the remaining activity at 10 µM (CAMKKβ; [1]) was 31%, the remaining activity at 10 µM (EFK2; [2]) was 97% and the remaining activity at 10 µM (p38σ MAPK; [3]) was 86%.
For `CC[C@H](CO)Nc1cc(NCc2ccccc2)n2ncc(C(C)C)c2n1` [ICEC0067], the remaining activity at 0.1 µM (CDK9/cyclin T complex) was 85%, the IC50 (CDK9/cyclin T complex) was 100 nM and the “mean activity remaining (as a percentage of the original activity), VEG-FR” value (VEG-FR) was 99%. The remaining activity at 10 µM (CAMKKβ; [1]) was 29%, the remaining activity at 10 µM (EFK2; [2]) was 95% and the remaining activity at 10 µM (p38σ MAPK; [3]) was 86%.
With `CC(C)c1cnn2c(NCc3ccccc3)cc(N[C@@H](CO)[C@H](O)CO)nc12` [ICEC0318, (3S)-3-(7-(Benzylamino)-3-isopropylpyrazolo[1,5-a]pyrimidin-5-ylamino)butane-1,2,4-triol] the remaining activity at 0.1 µM (CDK9/cyclin T complex) was 56%, the “mean activity remaining (as a percentage of the original activity), VEG-FR” value (VEG-FR) was 92% and the remaining activity at 10 µM (CAMKKβ; [1]) was 23%. For the same compound, the remaining activity at 10 µM (EFK2; [2]) was 92% and the remaining activity at 10 µM (p38σ MAPK; [3]) was 86%.
With `CC(C)c1cnn2c(NCc3ccccc3F)cc(NCCCCCN)nc12` [ICEC-0232] the “mean activity remaining (as a percentage of the original activity), VEG-FR” value (VEG-FR) was 105%, the “mean activity remaining (as a percentage of the original activity), CAMK Kb” value (CAMKKβ; 10 micromolar compound) was 18% and the “mean activity remaining (as a percentage of the original activity), EFK2” value (EFK2; 10 micromolar compound) was 98%. The “mean activity remaining (as a percentage of the original activity), p38s MAPK” value (p38σ MAPK; 10 micromolar compound) was 78%.
